According to paper PMC4374917, “Identification of Small Molecules that Disrupt Signaling between ABL and Its Positive Regulator RIN1” (PLoS ONE, 2015):
Read-outs that look alike come from different tables or passages of the source.

Assays:
[1] = target: T1, ABL1-eGFP (CRK substrate) (Homo sapiens, UniProt P00519); test: In vitro kinase assay for direct ABL inhibitors; assay type: biochemical; details: 10 μM test compound, 0.5 nM ABL-eGFP, 2 μM CRK, 30 minutes at 30°C, anti-phosphotyrosine immunoblot
T1 construct: The ABL1 amino terminus was amplified from AblWT1-531 (gift of Dr. John Kuriyan); made in house; host or cells: Sf9 insect cells (baculovirus, pFastBac1)
Experimental: To identify these direct ABL kinase inhibitors, we screened the compounds using an in vitro kinase assay. Purified ABL1-eGFP was incubated with CRK, a well-characterized substrate, in kinase buffer containing ATP.
0.5 nM purified ABL-eGFP was mixed with 2 μM CRK and 10 μM test compound and incubated in kinase buffer for 30 minutes at 30°C. Samples were analyzed by immunoblot using anti-phosphotyrosine. All the hits were screened, and a representative immunoblot is shown here.
The kinase assay to identify direct ABL kinase inhibitors from UCLA MSSR and TSRI hits was performed as described in PubChem BioAssay AID 624303 (https://pubchem.ncbi.nlm.nih.gov/assay/assay.cgi?aid=624303). Purified His6-CrkII was expressed and purified as previously described.

[2] = tested on: native ABL1; design: method as in PMID 16415863, PMID 20072125; details: cited from earlier work
[3] = tested on: MAPK1/3 phosphorylation in K562 cells; test: pMAPK in K562 (immunoblot pMAPK1/3 / MAPK1/3); assay type: cell-based, human; details: for %inhibition of MAPK1/3 phosphorylation (pMAPK/MAPK ratio): 10 μM, 4 hours at 37°C, vs DMSO control, six biological replicates
Experimental: […] Each compound was tested with six biological replicates. Band intensity was quantified using LI-COR Odyssey, and the ratio of pMAPK/MAPK signal intensity is graphed for each compound and its DMSO control. Compounds are identified by their PubChem CID number.
Membranes were scanned and signal intensity quantified using a Li-Cor Odyssey scanner. To quantify RIN1 expression, signal intensities were first normalized to the housekeeping gene, tubulin. Phospho-MAPK1/3 signal intensities were normalized to total MAPK1/3. Changes in protein expression or phosphorylation were calculated as fold-change compared to control vector.
K562 with vector or RIN1 overexpression lentivirus were previously described. To analyze MAPK1 phosphorylation, confluent K562 cells were lysed in NP-40 buffer and immunoblotted. […] Cells from each well were harvested, lysed in 400 µL NP-40 and immunoblotted.
To test each compound, 5x10^5 K562 cells were plated on a 10 cm tissue culture plate and incubated for 3 days. Cells were harvested and the volume brought to 12 mLs with fresh medium. 1 mL of the cells was distributed into each well of a 12-well tissue culture plate. In 6 of the wells, 10 µL of 1 mM compound was added per well. 10 µL of DMSO was added to the remaining wells and mixed by pipetting up and down. Cells were incubated at 37°C and 5% CO2 for 4 hours. After incubation, cells were harvested from each well, lysed in 150 µL of RIPA buffer and analyzed as above.

[4] = tested on: K562 cells; test: K562 proliferation assay (MTS); assay type: cell-based, human; details: dose-response 3.125-100 μM, 48 hours, triplicate
Experimental: K562 cells were plated 3x10^4 cells/well in 96-well plates. Cells were treated with DMSO or test compound in dose-response (100, 50, 25, 12.5, 6.25, 3.125 μM) to a final DMSO concentration of 1%. After 48 hours of incubation at 37°C, cell proliferation was assessed by MTS assay (Promega CellTiter 96 AQueous One Solution) according to the manufacturer’s protocol. Absorbance at 490nm was read on a PerkinElmer Victor3 plate reader. Experiments were performed in triplicate.
K562 cells were treated with DMSO or test compound in dose-response. After 48 hours of incubation at 37°C, cell proliferation was assessed by MTS assay. Growth in the presence of test compound was normalized to DMSO-treated K562 cells and results are presented as % of growth relative to control. Experiments were performed in triplicate. (PDF) Click here for additional data file.

[5] = target: T2, RIN1::ABL1 interaction (RIN1-SBP / ABL1-eGFP) (Homo sapiens, UniProt P00519+Q13671); test: TR-FRET assay of RIN1::ABL binding; details: for IC50: 21 hits selected for cell-based assay, concentration-response curves in triplicate
T2 construct: The ABL1 amino terminus was amplified from AblWT1-531 (gift of Dr. John Kuriyan); TEV site-ProtA-Flag (C, cleaved yes); made in house; host or cells: Sf9 insect cells (baculovirus, pFastBac1)
Experimental: To measure binding between purified RIN1 and ABL proteins we designed a quantitative TR-FRET based assay.
The assay readout was calculated as a ratio of donor and acceptor emissions, a measurement independent of donor and acceptor concentrations that allows for reliable comparison across assays. Assay components were mixed in kinase buffer and incubated for one hour at room temperature to allow for RIN1-Y^36 phosphorylation by ABL1 and subsequent formation of a stable divalent interaction between these proteins. Each multi-well assay plate included negative control samples (streptavidin-terbium, ABL-eGFP and ATP without RIN1-SBP). […]

[6] = S2 Table, TR-FRET assay, maximal inhibition, read-out: Max response (%)

T2 sequence (P00519 1-531 isoform P00519-2): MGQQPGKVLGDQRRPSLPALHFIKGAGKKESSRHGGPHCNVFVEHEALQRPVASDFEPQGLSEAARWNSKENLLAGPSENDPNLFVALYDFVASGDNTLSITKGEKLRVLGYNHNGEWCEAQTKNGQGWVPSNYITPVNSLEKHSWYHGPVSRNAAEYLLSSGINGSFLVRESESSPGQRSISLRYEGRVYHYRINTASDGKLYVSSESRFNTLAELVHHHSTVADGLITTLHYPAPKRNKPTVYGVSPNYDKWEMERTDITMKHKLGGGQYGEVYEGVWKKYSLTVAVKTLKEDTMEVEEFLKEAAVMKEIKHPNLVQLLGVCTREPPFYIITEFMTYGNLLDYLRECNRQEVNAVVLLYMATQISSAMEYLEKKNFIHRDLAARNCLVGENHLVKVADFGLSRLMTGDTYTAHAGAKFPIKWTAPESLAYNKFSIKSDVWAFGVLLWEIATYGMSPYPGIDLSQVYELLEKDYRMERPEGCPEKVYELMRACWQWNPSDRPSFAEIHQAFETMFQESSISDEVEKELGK
T2 sequence (Q13671 whole entry): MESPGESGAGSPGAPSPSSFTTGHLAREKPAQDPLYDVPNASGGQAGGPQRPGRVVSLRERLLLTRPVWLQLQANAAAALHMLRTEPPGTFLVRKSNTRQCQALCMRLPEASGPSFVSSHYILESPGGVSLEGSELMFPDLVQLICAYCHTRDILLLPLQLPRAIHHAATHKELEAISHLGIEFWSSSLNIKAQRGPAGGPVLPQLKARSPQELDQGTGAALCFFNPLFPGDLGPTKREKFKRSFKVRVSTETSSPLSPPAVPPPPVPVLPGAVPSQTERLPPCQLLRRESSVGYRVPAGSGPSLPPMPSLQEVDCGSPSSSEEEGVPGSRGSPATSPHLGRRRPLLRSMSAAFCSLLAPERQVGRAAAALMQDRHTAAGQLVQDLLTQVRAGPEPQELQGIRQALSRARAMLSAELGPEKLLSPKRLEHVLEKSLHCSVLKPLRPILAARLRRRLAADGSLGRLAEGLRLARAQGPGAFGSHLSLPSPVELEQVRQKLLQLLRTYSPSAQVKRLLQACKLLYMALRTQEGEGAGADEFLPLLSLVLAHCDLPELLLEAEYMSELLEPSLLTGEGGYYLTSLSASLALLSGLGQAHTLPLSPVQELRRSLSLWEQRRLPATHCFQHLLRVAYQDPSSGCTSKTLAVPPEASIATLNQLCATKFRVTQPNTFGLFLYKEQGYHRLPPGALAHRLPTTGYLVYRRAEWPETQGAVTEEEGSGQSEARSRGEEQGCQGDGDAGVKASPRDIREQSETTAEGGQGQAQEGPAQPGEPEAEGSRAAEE
T1 sequence (P00519 1-531 isoform P00519-2): as the sequence (P00519 1-531 isoform P00519-2) above

| IC50 ([5]; S2 Table) [nM] | Emax [5, 6] [%] | SMILES | %inhibition of MAPK1/3 phosphorylation (pMAPK/MAPK ratio) [3] [%] | K562 proliferation (% growth relative to DMSO control) [4] | further results |
| --- | --- | --- | --- | --- | --- |
| 1060 | 85.2 | CN(C(=O)c1ccc(NC(=O)Cc2ccc(NC(=O)C3CCN(C(=O)c4ccc(F)cc4)CC3)cc2)cc1)C1CC1 [compound 56844185] | 57 ± 13 | decrease K562 proliferation |  |
| 3670 | 84.8 | COc1ccc(C(=O)N2CCC(C(=O)Nc3ccc(CC(=O)Nc4ccc(C(=O)N(C)C5CC5)cc4)cc3)CC2)cc1 [compound 56844186] | 75 ± 33 | decrease K562 proliferation |  |
| 1350 | 86.8 | CN(C(=O)c1ccc(NC(=O)Cc2ccc(NC(=O)C3CCN(C(=O)c4cccc(F)c4)CC3)cc2)cc1)C1CC1 [compound 56844188] | 75 ± 31 | decrease K562 proliferation |  |

More lines, now with the values behind:

| SMILES | IC50 ([5]; S2 Table) [nM] | Emax [5, 6] [%] | %inhibition of MAPK1/3 phosphorylation (pMAPK/MAPK ratio) [3] [%] | K562 proliferation (% growth relative to DMSO control) [4] | further results |
| --- | --- | --- | --- | --- | --- |
| COc1ccc(CCNc2cc(=O)nc(N)[nH]2)cc1 [CID 1532134, 2-amino-6-[2-(4-methoxyphenyl)ethylamino]-1H-pyrimidin-4-one] |  |  |  |  | ABL kinase activity: CRK and ABL phosphorylation [1]: no activity |
| NC(=O)c1cccc(-c2cc(Nc3ccc(OC(F)(F)F)cc3)ncn2)c1 [GNF-2] |  |  |  |  | activity against native ABL1 [2]: no activity |
| COc1cccc(CSc2nnc(CSc3nc4nc(C)cc(C)n4n3)s2)c1 [compound 1818178] | 9570 | 95.7 | 25 ± 20 | decrease K562 proliferation |  |
| CN(C(=O)c1ccc(NC(=O)Cc2ccc(NC(=O)C3CCN(C(=O)c4ccccc4)CC3)cc2)cc1)C1CC1 [compound 44142745] | 2530 | 86.2 | 52 ± 47 | decrease K562 proliferation | Emax ([5]; S4 Table, N-acyl piperidine-4-carboxamide series SAR, RIN1-ABL dose-response curve, read-out: Max Response (%)): 89.1% |
| Cc1ccc(NC(=O)c2ccc(CN3CCN(C)CC3)cc2)cc1Nc1nccc(-c2cccnc2)n1 [imatinib, reference compound] |  |  |  |  | MAPK1/3 phosphorylation signal ([3]; 1 μM imatinib, 1 and 4 hours at 37°C): rapidly decreased |
| O=C(O[C@@H]1Cc2c(O)cc(O)cc2O[C@@H]1c1cc(O)c(=O)c2c(O)c(O)cc([C@H]3Oc4cc(O)cc(O)c4C[C@H]3OC(=O)c3cc(O)c(O)c(O)c3)c2c1)c1cc(O)c(O)c(O)c1 [theaflavin-3,3’-digallate] |  |  |  |  | ABL kinase activity: CRK and ABL phosphorylation [1]: directly inhibits ABL trans-phosphorylation of CRK as well as ABL; Activity in the TR-FRET screening assay (FRET ratio) ([5]; primary screen): decrease the FRET ratio |
